Assay results taken from patent US10172830B2, “Pyrazolone compounds having human neutrophil elastase inhibitory properties” (CHIESI FARMACEUTICI S.P.A., priority 2016, dated 2019).
Each block holds one compound with its values, some of them ahead of it.

Target: T1, human neutrophil elastase (HNE) (Homo sapiens, UniProt P08246)
T1 construct: purchased Sigma E8140
T1 sequence (P08246 30-247 limits assumed): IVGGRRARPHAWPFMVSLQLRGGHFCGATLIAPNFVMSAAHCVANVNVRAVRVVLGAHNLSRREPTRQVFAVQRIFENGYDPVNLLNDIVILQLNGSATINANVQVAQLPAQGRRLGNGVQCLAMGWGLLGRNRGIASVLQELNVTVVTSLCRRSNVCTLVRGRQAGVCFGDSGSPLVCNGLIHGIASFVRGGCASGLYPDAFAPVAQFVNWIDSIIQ
Test: HNE enzyme assay (human neutrophil elastase enzyme activity assay)
Type: biochemical
Conditions: human leukocyte elastase 0.00072 U/mL; substrate MeOSuc-Ala-Ala-Pro-Val-AMC 100 μM; 25° C. for 30 minutes; at least two separate experiments; read-out: HNE inhibition (HNE enzyme inhibition, IC50 values)
Experimental: Compounds of the present invention were tested for potency in a human neutrophil elastase (HNE) enzyme activity assay.
Assays were performed in 96-well plates in a total assay volume of 100 μL. The final concentration of elastase enzyme (human leukocyte elastase, Sigma E8140) was 0.00072 U/mL. The peptide substrate (MeOSuc-Ala-Ala-Pro-Val-AMC, Calbiochem #324740) was used at a final concentration of 100 μM. The final concentration of DMSO was 1% in the assay buffer (0.05M Tris.HCl, 0.1M NaCl, 0.1M CaCl2, 0.0005% brij-35, pH 7.5). The enzymatic reaction was started by addition of the enzyme and incubated at 25° C. for 30 minutes. After incubation, the reaction was stopped by addition of soybean trypsin inhibitor (Sigma T9003) at a final concentration of 50 μg/well. Fluorescence was measured using a Molecular Devices fluorescence plate reader using 380 nm excitation and 460 nm emission wavelengths.
A dose response to each compound was performed and the effect of compound in each experiment was expressed as a percentage inhibition of the control enzyme fluorescence. Dose response curves were plotted and compound potency (IC50) was determined. Compounds were tested in at least two separate experiments.

SMILES: CCOC(=O)c1c(-c2ccnn2-c2ccc(C#N)cc2)n(C)n(-c2cccc(C(F)(F)F)c2)c1=O [Example 1, 2′-(4-Cyano-phenyl)-2-methyl-5-oxo-1-(3-trifluoromethyl-phenyl)-2,5-dihydro-1H,2′H-[3,3′]bipyrazolyl-4-carboxylic acid ethyl ester]
IC50: < 1 nM

SMILES: CN1CCC(NC(=O)c2c(-c3ccnn3-c3ccc(C#N)cc3)n(C)n(-c3cccc(C(F)(F)F)c3)c2=O)CC1 [Example 2, 2′-(4-Cyano-phenyl)-2-methyl-5-oxo-1-(3-trifluoromethyl-phenyl)-2,5-dihydro-1H,2′H-[3,3′]bipyrazolyl-4-carboxylic acid (1-methyl-piperidin-4-yl)-amide]
IC50: 1 to 10 nM

SMILES: CCNC(=O)c1c(-c2ccnn2-c2ccc(C#N)cc2)n(C)n(-c2cccc(C(F)(F)F)c2)c1=O [Example 3, 2′-(4-Cyano-phenyl)-2-methyl-5-oxo-1-(3-trifluoromethyl-phenyl)-2,5-dihydro-1H,2′H-[3,3′]bipyrazolyl-4-carboxylic acid ethylamide]
IC50: < 1 nM

SMILES: Cn1c(-c2ccnn2-c2ccc(C#N)cc2)c(C(=O)N[C@@H]2C[C@@H]3CN(C(=O)OC(C)(C)C)C[C@@H]3C2)c(=O)n1-c1cccc(C(F)(F)F)c1 [Example 4, (3aS,5R,6aR)-5-{[2′-(4-Cyano-phenyl)-2-methyl-5-oxo-1-(3-trifluoromethyl-phenyl)-2,5-dihydro-1H,2′H-[3,3′]bipyrazolyl-4-carbonyl]-amino}-hexahydro-cyclopenta[c]pyrrole-2-carboxylic acid tert-butyl ester]
IC50: < 1 nM

SMILES: C[C@H](NC(=O)c1c(-c2ccnn2-c2ccc(C#N)cc2)n(C)n(-c2cccc(C(F)(F)F)c2)c1=O)c1ncc(CN(C)C)o1 [Example 5, 2′-(4-Cyano-phenyl)-2-methyl-5-oxo-1-(3-trifluoromethyl-phenyl)-2,5-dihydro-1H,2′H-[3,3′]bipyrazolyl-4-carboxylic acid [(S)-1-(5-dimethylaminomethyl-oxazol-2-yl)-ethyl]-amide]
IC50: < 1 nM

SMILES: CN(C)CC(=O)N1CCC(NC(=O)c2c(-c3ccnn3-c3ccc(C#N)cc3)n(C)n(-c3cccc(C(F)(F)F)c3)c2=O)CC1 [Example 6, 2′-(4-Cyano-phenyl)-2-methyl-5-oxo-1-(3-trifluoromethyl-phenyl)-2,5-dihydro-1H,2′H-[3,3′]bipyrazolyl-4-carboxylic acid [1-(2-dimethylamino-acetyl)-piperidin-4-yl]-amide]
IC50: < 1 nM

SMILES: C[C@H](NC(=O)c1c(-c2ccnn2-c2ccc(C#N)cc2)n(C)n(-c2cccc(C(F)(F)F)c2)c1=O)c1nnc(CN(C)C)o1 [Example 8, 2′-(4-Cyano-phenyl)-2-methyl-5-oxo-1-(3-trifluoromethyl-phenyl)-2,5-dihydro-1H,2′H-[3,3′]bipyrazolyl-4-carboxylic acid [(S)-1-(5-dimethylaminomethyl-[1,3,4]oxadiazol-2-yl)-ethyl]-amide]
IC50: < 1 nM

SMILES: CN1CCC(CN(C)C(=O)C(C)(C)NC(=O)c2c(-c3ccnn3-c3ccc(C#N)cc3)n(C)n(-c3cccc(C(F)(F)F)c3)c2=O)CC1 [Example 9, 2′-(4-Cyano-phenyl)-2-methyl-5-oxo-1-(3-trifluoromethyl-phenyl)-2,5-dihydro-1H,2′H-[3,3′]bipyrazolyl-4-carboxylic acid {1-methyl-1-[methyl-(1-methyl-piperidin-4-ylmethyl)-carbamoyl]-ethyl}-amide]
IC50: < 1 nM

SMILES: CN(C)CCOC(=O)[C@H]1CC[C@H](NC(=O)c2c(-c3ccnn3-c3ccc(C#N)cc3)n(C)n(-c3cccc(C(F)(F)F)c3)c2=O)CC1 [Example 15, Trans-4-{[2′-(4-cyano-phenyl)-2-methyl-5-oxo-1-(3-trifluoromethyl-phenyl)-2,5-dihydro-1H,2′H-[3,3′]bipyrazolyl-4-carbonyl]-amino}-cyclohexanecarboxylic acid 2-dimethylamino-ethyl ester]
IC50: < 1 nM

The remaining lines, values ahead:

IC50: < 1 nM
SMILES: C[C@H](NC(=O)c1c(-c2ccnn2-c2ccc(C#N)cc2)n(C)n(-c2cccc(C(F)(F)F)c2)c1=O)C(=O)N(C)CC1CCN(C)CC1 [Example 7, 2′-(4-Cyano-phenyl)-2-methyl-5-oxo-1-(3-trifluoromethyl-phenyl)-2,5-dihydro-1H,2′H-[3,3′]bipyrazolyl-4-carboxylic acid {(S)-1-[methyl-(1-methyl-piperidin-4-ylmethyl)-carbamoyl]-ethyl}-amide]

IC50: < 1 nM
SMILES: CN(C)Cc1cnc(C(C)(C)NC(=O)c2c(-c3ccnn3-c3ccc(C#N)cc3)n(C)n(-c3cccc(C(F)(F)F)c3)c2=O)o1 [Example 10, 2′-(4-Cyano-phenyl)-2-methyl-5-oxo-1-(3-trifluoromethyl-phenyl)-2,5-dihydro-1H,2′H-[3,3′]bipyrazolyl-4-carboxylic acid [1-(5-dimethylaminomethyl-oxazol-2-yl)-1-methyl-ethyl]-amide]

IC50: < 1 nM
SMILES: CC(C)[C@H](NC(=O)c1c(-c2ccnn2-c2ccc(C#N)cc2)n(C)n(-c2cccc(C(F)(F)F)c2)c1=O)c1ncc(CN(C)C)o1 [Example 11, 2′-(4-Cyano-phenyl)-2-methyl-5-oxo-1-(3-trifluoromethyl-phenyl)-2,5-dihydro-1H,2′H-[3,3′]bipyrazolyl-4-carboxylic acid [(S)-1-(5-dimethylaminomethyl-oxazol-2-yl)-2-methyl-propyl]-amide]

IC50: < 1 nM
SMILES: CN1CCC(NC(=O)[C@H]2CC[C@H](NC(=O)c3c(-c4ccnn4-c4ccc(C#N)cc4)n(C)n(-c4cccc(C(F)(F)F)c4)c3=O)CC2)CC1 [Example 12, 2′-(Trans-4-cyano-phenyl)-2-methyl-5-oxo-1-(3-trifluoromethyl-phenyl)-2,5-dihydro-1H,2′H-[3,3′]bipyrazolyl-4-carboxylic acid [4-(1-methyl-piperidin-4-ylcarbamoyl)-cyclohexyl]-amide]

IC50: < 1 nM
SMILES: CN1CCC(OC(=O)[C@H]2CC[C@H](NC(=O)c3c(-c4ccnn4-c4ccc(C#N)cc4)n(C)n(-c4cccc(C(F)(F)F)c4)c3=O)CC2)CC1 [Example 13, Trans-4-{[2′-(4-cyano-phenyl)-2-methyl-5-oxo-1-(3-trifluoromethyl-phenyl)-2,5-dihydro-1H,2′H-[3,3′]bipyrazolyl-4-carbonyl]-amino}-cyclohexanecarboxylic acid 1-methyl-piperidin-4-yl ester]

IC50: < 1 nM
SMILES: CN(C)C1CCN(C(=O)[C@H]2CC[C@H](NC(=O)c3c(-c4ccnn4-c4ccc(C#N)cc4)n(C)n(-c4cccc(C(F)(F)F)c4)c3=O)CC2)CC1 [Example 14, 2′-(Trans-4-cyano-phenyl)-2-methyl-5-oxo-1-(3-trifluoromethyl-phenyl)-2,5-dihydro-1H,2′H-[3,3′]bipyrazolyl-4-carboxylic acid [4-(4-dimethylamino-piperidine-1-carbonyl)-cyclohexyl]-amide]

IC50: < 1 nM
SMILES: CN(C)CC(=O)O[C@H]1CC[C@H](NC(=O)c2c(-c3ccnn3-c3ccc(C#N)cc3)n(C)n(-c3cccc(C(F)(F)F)c3)c2=O)CC1 [Example 16, Dimethylamino-acetic acid trans-4-{[2′-(4-cyano-phenyl)-2-methyl-5-oxo-1-(3-trifluoromethyl-phenyl)-2,5-dihydro-1H,2′H-[3,3′]bipyrazolyl-4-carbonyl]-amino}-cyclohexyl ester]
